What was measured:
[1] = Tested for its activity to inhibit the binding of [125I]gastrin to gastric glands (gastrin) in guinea pig
[2] = Tested for its activity to inhibit the binding of [125I]CCK-33 to Cholecystokinin type B receptor in guinea pig brain
[3] = Tested for its activity to inhibit the binding of [125I]gastrin to gastric glands (gastrin) in guinea pig; remark: listed apart in the source

Row | IC50 [1] [µM] | IC50 [2] [µM] | IC50 [3] [µM] | Compound
1 | 14 | 34 |  | O=C(Cc1ccccc1)Nc1cc2c3ccccc3nc-2c[nH]1 [N-(9H-beta-Carbolin-3-yl)-2-phenyl-acetamide]
2 | > 100 | 223 |  | O=C(Nc1cc2c3ccccc3nc-2c[nH]1)c1ccccc1 [N-(9H-beta-Carbolin-3-yl)-benzamide]
3 |  | > 100 | > 100 | Cn1c(C(=O)Nc2cc3c4ccccc4nc-3c[nH]2)cc2ccccc21 [1-Methyl-1H-indole-2-carboxylic acid (9H-beta-carbolin-3-yl)-amide]
